Measurements taken from ChEMBL document CHEMBL1201862, “PubChem BioAssay data set” (2004).
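How tested: cells in 96-well plates exposed to compound for 48 hours at five concentrations. GI50 is the concentration that inhibits growth by half.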 Activity calls are given as the source filed them. Rule as the data show it: active = GI50 up to about 1.1 µM and inactive = higher.

Assays:
Test in all cases: growth of human tumour cells (NCI), 48 h
SNB-75 = tested on: SNB-75
KM12 = tested on: KM12
786-0 = tested on: 786-0
HOP-92 = tested on: HOP-92
Malme-3M = tested on: Malme-3M
TK-10 = tested on: TK-10
MCF7 = tested on: MCF7
OVCAR-3 = tested on: OVCAR-3
HOP-62 = tested on: HOP-62
CAKI-1 = tested on: CAKI-1
Hs-578T = tested on: Hs-578T
A498 = tested on: A498
SK-MEL-28 = tested on: SK-MEL-28
U-251 = tested on: U-251
SF-539 = tested on: SF-539
SK-MEL-2 = tested on: SK-MEL-2
OVCAR-8 = tested on: OVCAR-8
UO-31 = tested on: UO-31
COLO 205 = tested on: COLO 205
MDA-MB-435 = tested on: MDA-MB-435
MOLT-4 = tested on: MOLT-4
RPMI-8226 = tested on: RPMI-8226
SNB-19 = tested on: SNB-19
NCI-H23 = tested on: NCI-H23
HCT-15 = tested on: HCT-15
HCT-116 = tested on: HCT-116
UACC-257 = tested on: UACC-257
LOX IMVI = tested on: LOX IMVI
NCI-H226 = tested on: NCI-H226
CCRF-CEM = tested on: CCRF-CEM
SW-620 = tested on: SW-620
SF-295 = tested on: SF-295
NCI/ADR-RES = tested on: NCI/ADR-RES
IGROV-1 = tested on: IGROV-1
EKVX = tested on: EKVX
HL-60 = tested on: HL-60
BT-549 = tested on: BT-549
SK-MEL-5 = tested on: SK-MEL-5
NCI-H460 = tested on: NCI-H460
UACC-62 = tested on: UACC-62
OVCAR-4 = tested on: OVCAR-4
DU-145 = tested on: DU-145
K562 = tested on: K562
NCI-H522 = tested on: NCI-H522
A549 = tested on: A549
PC-3 = tested on: PC-3
HT-29 = tested on: HT-29
M14 = tested on: M14
OVCAR-5 = tested on: OVCAR-5
RXF 393 = tested on: RXF 393
SR = tested on: SR
HCC 2998 = tested on: HCC 2998
SF-268 = tested on: SF-268
T47D = tested on: T47D
ACHN = tested on: ACHN
SN12C = tested on: SN12C
MDA-MB-231 = tested on: MDA-MB-231
SK-OV-3 = tested on: SK-OV-3

Measured: GI50

O=C(O)c1nc2ccccc2nc1Nc1ccc(F)cc1
inactive: SNB-75 24.8 µM | KM12 41.6 µM | 786-0 40.9 µM | HOP-92 27.1 µM | Malme-3M 37.9 µM | TK-10 34.5 µM | MCF7 29.9 µM | OVCAR-3 15.3 µM | HOP-62 30.4 µM | CAKI-1 20.9 µM | Hs-578T 29.2 µM | A498 40 µM | SK-MEL-28 36.4 µM | U-251 37.7 µM | SF-539 23.5 µM | SK-MEL-2 26.9 µM | OVCAR-8 38.9 µM | UO-31 43 µM | COLO 205 29.5 µM | MDA-MB-435 34.8 µM | MOLT-4 28.3 µM | RPMI-8226 23.1 µM | SNB-19 30.8 µM | NCI-H23 34 µM | HCT-116 30.8 µM | UACC-257 29.6 µM | LOX IMVI 34.1 µM | NCI-H226 23.7 µM | CCRF-CEM 29.8 µM | SW-620 38.5 µM | SF-295 24 µM | NCI/ADR-RES 36.8 µM | IGROV-1 37.4 µM | EKVX 36.4 µM | HL-60 25.7 µM | BT-549 44.3 µM | SK-MEL-5 21.6 µM | NCI-H460 34 µM | UACC-62 27.2 µM | OVCAR-4 41.8 µM | DU-145 33.7 µM | K562 32.1 µM | NCI-H522 25.1 µM | A549 33.4 µM | PC-3 27.9 µM | HT-29 42.1 µM | M14 25.5 µM | OVCAR-5 56.4 µM | RXF 393 14.5 µM | SR 32.7 µM | HCC 2998 32.1 µM | SF-268 22.9 µM | T47D 28.4 µM | ACHN 26.9 µM
26.7 µM: HCT-15

COC(=O)[C@H]1NC(=O)CCSSC1(C)C
> 100 µM: HCT-15
inactive: KM12 > 100 µM | 786-0 > 100 µM | HOP-92 > 100 µM | Malme-3M > 100 µM | TK-10 > 100 µM | MCF7 > 100 µM | OVCAR-3 > 100 µM | HOP-62 > 100 µM | CAKI-1 > 100 µM | Hs-578T > 100 µM | A498 > 100 µM | SK-MEL-28 > 100 µM | U-251 > 100 µM | SF-539 > 100 µM | SK-MEL-2 > 100 µM | OVCAR-8 > 100 µM | UO-31 > 100 µM | COLO 205 > 100 µM | MDA-MB-435 > 100 µM | MOLT-4 > 100 µM | RPMI-8226 > 100 µM | SNB-19 > 100 µM | NCI-H23 > 100 µM | HCT-116 > 100 µM | UACC-257 > 100 µM | LOX IMVI > 100 µM | SN12C > 100 µM | NCI-H226 > 100 µM | CCRF-CEM > 100 µM | SW-620 > 100 µM | SF-295 > 100 µM | NCI/ADR-RES > 100 µM | IGROV-1 > 100 µM | EKVX > 100 µM | HL-60 > 100 µM | BT-549 > 100 µM | SK-MEL-5 > 100 µM | UACC-62 > 100 µM | MDA-MB-231 > 100 µM | OVCAR-4 > 100 µM | DU-145 > 100 µM | K562 > 100 µM | NCI-H522 > 100 µM | A549 > 100 µM | PC-3 > 100 µM | HT-29 > 100 µM | M14 > 100 µM | OVCAR-5 > 100 µM | RXF 393 > 100 µM | SF-268 > 100 µM | T47D > 100 µM | ACHN > 100 µM

C/C(=C\CSCC(N)C(=O)O)CC/C=C(\C)CNc1ccccc1 (stereo not drawn)
inactive: SNB-75 > 100 µM | KM12 > 100 µM | 786-0 > 100 µM | Malme-3M > 100 µM | TK-10 > 100 µM | MCF7 > 100 µM | OVCAR-3 > 100 µM | HOP-62 > 100 µM | SK-OV-3 > 100 µM | CAKI-1 > 100 µM | Hs-578T > 100 µM | SK-MEL-28 > 100 µM | U-251 > 100 µM | SF-539 > 100 µM | SK-MEL-2 > 100 µM | OVCAR-8 > 100 µM | UO-31 82 µM | COLO 205 > 100 µM | MDA-MB-435 > 100 µM | MOLT-4 > 100 µM | SNB-19 > 100 µM | NCI-H23 > 100 µM | HCT-116 > 100 µM | UACC-257 > 100 µM | LOX IMVI > 100 µM | SN12C > 100 µM | NCI-H226 > 100 µM | SW-620 > 100 µM | SF-295 > 100 µM | NCI/ADR-RES > 100 µM | IGROV-1 > 100 µM | EKVX > 100 µM | HL-60 > 100 µM | BT-549 64.1 µM | SK-MEL-5 75.2 µM | NCI-H460 > 100 µM | UACC-62 > 100 µM | MDA-MB-231 > 100 µM | OVCAR-4 > 100 µM | DU-145 > 100 µM | K562 > 100 µM | NCI-H522 49 µM | A549 > 100 µM | PC-3 > 100 µM | HT-29 > 100 µM | M14 > 100 µM | OVCAR-5 > 100 µM | RXF 393 > 100 µM | SR > 100 µM | HCC 2998 > 100 µM | SF-268 > 100 µM | T47D > 100 µM | ACHN > 100 µM
> 100 µM: HCT-15
active: RPMI-8226 0.421 µM
